According to paper PMC5218480 (PLoS ONE, 2017):

Test system: MV-4-11 cells
Experiment: Gene expression microarray analysis (Affymetrix PrimeView) and GSEA
Type: cell-based, human
Parameters: RFU PODN (11730768_x_at) / Fold change /veh PODN (11730768_x_at) / RFU LINC00158 (11744669_a_at) / Fold change /veh LINC00158 (11744669_a_at) / RFU DUSP10 (11751237_a_at) / Fold change /veh DUSP10 (11751237_a_at) / RFU ID3 (11757404_x_at) / Fold change /veh ID3 (11757404_x_at) / RFU PLEKHG5 (11737974_s_at) / Fold change /veh PLEKHG5 (11737974_s_at) / RFU LRRC4B (11730491_at) / Fold change /veh LRRC4B (11730491_at) / RFU GIMAP4 (11747438_a_at) / Fold change /veh GIMAP4 (11747438_a_at) / RFU KRT8 (11758183_x_at) / Fold change /veh KRT8 (11758183_x_at) / RFU CNN1 (11734310_a_at) / Fold change /veh CNN1 (11734310_a_at) / RFU VPS37D (11726825_at) / Fold change /veh VPS37D (11726825_at) / RFU C10orf10 (11716522_x_at) / Fold change /veh C10orf10 (11716522_x_at) / RFU KIR2DL2 /// KIR2DL4 /// KIR2DL5A /// KIR2DL5B /// KIR2DS1 /// KIR2DS2 /// KIR2DS3 /// KIR2DS4 /// KIR3DL3 /// KIR3DL3 /// KIR3DS1 (11738374_at) / Fold change /veh KIR2DL2 /// KIR2DL4 /// KIR2DL5A /// KIR2DL5B /// KIR2DS1 /// KIR2DS2 /// KIR2DS3 /// KIR2DS4 /// KIR3DL3 /// KIR3DL3 /// KIR3DS1 (11738374_at) / RFU C1QL1 (11718748_at) / Fold change /veh C1QL1 (11718748_at) / RFU TMPRSS4 (11747572_a_at) / Fold change /veh TMPRSS4 (11747572_a_at) / RFU HAMP (11756126_x_at) / Fold change /veh HAMP (11756126_x_at) / RFU RNFT2 (11725882_a_at) / Fold change /veh RNFT2 (11725882_a_at) / RFU NR4A2 (11747474_a_at) / Fold change /veh NR4A2 (11747474_a_at) / RFU ABCC12 (11746883_a_at) / Fold change /veh ABCC12 (11746883_a_at) / RFU TMEM136 (11760407_x_at) / Fold change /veh TMEM136 (11760407_x_at) / RFU CLDN22 /// WWC2 (11732394_at) / Fold change /veh CLDN22 /// WWC2 (11732394_at) / RFU HLA-DPB1 (11760878_x_at) / Fold change /veh HLA-DPB1 (11760878_x_at) / RFU SPINT1 (11716480_a_at) / Fold change /veh SPINT1 (11716480_a_at) / RFU GAP43 (11754022_s_at) / Fold change /veh GAP43 (11754022_s_at) / RFU A4GNT (11735810_at) / Fold change /veh A4GNT (11735810_at) / RFU PRB3 (11715151_x_at) / Fold change /veh PRB3 (11715151_x_at) / RFU TUBB4B (11761932_at) / Fold change /veh TUBB4B (11761932_at) / RFU CAPN14 (11732068_a_at) / Fold change /veh CAPN14 (11732068_a_at) / RFU TMCC2 (11721928_a_at) / Fold change /veh TMCC2 (11721928_a_at) / RFU IRGQ (11745062_a_at) / Fold change /veh IRGQ (11745062_a_at) / RFU FAM174B (11720279_a_at) / Fold change /veh FAM174B (11720279_a_at) / RFU TMPRSS4 (11748680_a_at) / Fold change /veh TMPRSS4 (11748680_a_at) / RFU FAM212B (11763350_a_at) / Fold change /veh FAM212B (11763350_a_at) / RFU PLEKHG5 (11743358_a_at) / Fold change /veh PLEKHG5 (11743358_a_at) / RFU ZSCAN30 (11745921_a_at) / Fold change /veh ZSCAN30 (11745921_a_at) / RFU CMKLR1 (11741424_a_at) / Fold change /veh CMKLR1 (11741424_a_at) / RFU LOC101060620 /// MAPK8IP1 (11723275_at) / Fold change /veh LOC101060620 /// MAPK8IP1 (11723275_at) / RFU SPTSSB (11747773_x_at) / Fold change /veh SPTSSB (11747773_x_at) / RFU PRSS12 (11739890_at) / Fold change /veh PRSS12 (11739890_at) / RFU BIN1 (11741810_x_at) / Fold change /veh BIN1 (11741810_x_at) / RFU WNT11 (11732464_a_at) / Fold change /veh WNT11 (11732464_a_at) / RFU C10orf10 (11716521_a_at) / Fold change /veh C10orf10 (11716521_a_at) / RFU C5orf56 (11738089_at) / Fold change /veh C5orf56 (11738089_at) / RFU CYB561 (11721691_x_at) / Fold change /veh CYB561 (11721691_x_at) / RFU ANKRD19P (11752326_a_at) / Fold change /veh ANKRD19P (11752326_a_at) / RFU OR2T12 /// OR2T33 /// OR2T8 (11738714_s_at) / Fold change /veh OR2T12 /// OR2T33 /// OR2T8 (11738714_s_at) / RFU VCAN (11748164_a_at) / Fold change /veh VCAN (11748164_a_at) / RFU JSRP1 (11732532_at) / Fold change /veh JSRP1 (11732532_at) / RFU KRTAP10-11 (11738290_x_at) / Fold change /veh KRTAP10-11 (11738290_x_at) / RFU MYO3A (11730013_a_at) / Fold change /veh MYO3A (11730013_a_at) / RFU EBF3 (11725865_a_at) / Fold change /veh EBF3 (11725865_a_at) / RFU CAMK2N1 (11719241_x_at) / Fold change /veh CAMK2N1 (11719241_x_at) / RFU C5orf56 (11738088_a_at) / Fold change /veh C5orf56 (11738088_a_at) / RFU OLFML3 (11715873_a_at) / Fold change /veh OLFML3 (11715873_a_at) / RFU LOC100653217 /// NTM (11731650_a_at) / Fold change /veh LOC100653217 /// NTM (11731650_a_at) / RFU MAPK11 (11762145_a_at) / Fold change /veh MAPK11 (11762145_a_at) / RFU FIZ1 (11724087_x_at) / Fold change /veh FIZ1 (11724087_x_at) / RFU OASL (11726364_x_at) / Fold change /veh OASL (11726364_x_at) / RFU SOX15 (11748057_x_at) / Fold change /veh SOX15 (11748057_x_at) / RFU CD79A (11719716_a_at) / Fold change /veh CD79A (11719716_a_at) / RFU HIST1H1D (11736915_at) / Fold change /veh HIST1H1D (11736915_at) / RFU CASKIN2 (11723855_a_at) / Fold change /veh CASKIN2 (11723855_a_at) / RFU LOC730098 (11760151_x_at) / Fold change /veh LOC730098 (11760151_x_at) / RFU OR4N2 (11742367_at) / Fold change /veh OR4N2 (11742367_at) / RFU PRRT2 (11749266_a_at) / Fold change /veh PRRT2 (11749266_a_at) / RFU SNX32 (11753110_a_at) / Fold change /veh SNX32 (11753110_a_at) / RFU CDHR5 (11726645_a_at) / Fold change /veh CDHR5 (11726645_a_at) / RFU RCAN1 (11760418_a_at) / Fold change /veh RCAN1 (11760418_a_at) / RFU FAM167A (11723789_a_at) / Fold change /veh FAM167A (11723789_a_at) / RFU FAM26E (11764081_at) / Fold change /veh FAM26E (11764081_at) / RFU ISYNA1 (11749810_s_at) / Fold change /veh ISYNA1 (11749810_s_at) / RFU ACY1 (11761880_at) / Fold change /veh ACY1 (11761880_at) / RFU 11764098_at / Fold change /veh 11764098_at / RFU SAMD14 (11745864_x_at) / Fold change /veh SAMD14 (11745864_x_at) / RFU NPB (11741838_a_at) / Fold change /veh NPB (11741838_a_at) / RFU TMPRSS6 (11731388_a_at) / Fold change /veh TMPRSS6 (11731388_a_at) / RFU KRTAP10-2 (11738614_at) / Fold change /veh KRTAP10-2 (11738614_at) / RFU ARHGAP8 /// PRR5-ARHGAP8 (11727945_x_at) / Fold change /veh ARHGAP8 /// PRR5-ARHGAP8 (11727945_x_at) / RFU KRTAP5-7 /// NADSYN1 (11734609_at) / Fold change /veh KRTAP5-7 /// NADSYN1 (11734609_at) / RFU RASL12 (11751679_a_at) / Fold change /veh RASL12 (11751679_a_at) / RFU CDKN2B (11736163_a_at) / Fold change /veh CDKN2B (11736163_a_at) / RFU PRF1 (11729649_at) / Fold change /veh PRF1 (11729649_at) / RFU, ZNF638 /// ZNF638-IT1 / Fold change vs veh, ZNF638 /// ZNF638-IT1 / RFU, PANK3 / Fold change vs veh, PANK3 / RFU, SH3YL1 / Fold change vs veh, SH3YL1 / RFU, ZEB2 / Fold change vs veh, ZEB2 / RFU, NRIP1 / Fold change vs veh, NRIP1 / RFU, PTTG1IP / Fold change vs veh, PTTG1IP / RFU, CAPN2 / Fold change vs veh, CAPN2 / RFU, MED14 / Fold change vs veh, MED14 / RFU, SNORA58 / Fold change vs veh, SNORA58 / RFU, C1orf63 / Fold change vs veh, C1orf63 / RFU, LRRFIP1 / Fold change vs veh, LRRFIP1 / RFU, NDUFAF7 / Fold change vs veh, NDUFAF7 / RFU, SLC12A2 / Fold change vs veh, SLC12A2 / RFU, IBTK / Fold change vs veh, IBTK / RFU, ESF1 / Fold change vs veh, ESF1 / Fold change vs veh, TMEM50B / RFU, TAOK1 / Fold change vs veh, TAOK1 / RFU, ACBD3 / Fold change vs veh, ACBD3 / RFU, TMA16 / Fold change vs veh, TMA16 / RFU, RWDD3 / Fold change vs veh, RWDD3 / RFU, BCAT1 / Fold change vs veh, BCAT1 / RFU, EDEM3 / Fold change vs veh, EDEM3 / RFU, TMEM33 / Fold change vs veh, TMEM33 / RFU, WDR75 / Fold change vs veh, WDR75 / RFU, AHCTF1 / Fold change vs veh, AHCTF1 / RFU, TFRC / Fold change vs veh, TFRC / RFU, ZDHHC17 / Fold change vs veh, ZDHHC17 / RFU, NOM1 / Fold change vs veh, NOM1 / RFU, ARL8B / Fold change vs veh, ARL8B / RFU, ZBTB11 / Fold change vs veh, ZBTB11 / RFU, TAMM41 / Fold change vs veh, TAMM41 / RFU, KIAA1704 /// LOC100996395 / Fold change vs veh, KIAA1704 /// LOC100996395 / RFU, ING1 / Fold change vs veh, ING1 / RFU, TRMT61B / Fold change vs veh, TRMT61B / RFU, FUBP3 / Fold change vs veh, FUBP3 / RFU, TP53 / Fold change vs veh, TP53 / RFU, TNKS2 / Fold change vs veh, TNKS2 / RFU, ZFP14 / Fold change vs veh, ZFP14 / RFU, ACTR2 / Fold change vs veh, ACTR2 / RFU, PPP3R1 / Fold change vs veh, PPP3R1 / RFU, PIK3R1 / Fold change vs veh, PIK3R1 / RFU, HNRNPA1 / Fold change vs veh, HNRNPA1 / RFU, RNF170 / Fold change vs veh, RNF170 / RFU, ZNF28 / Fold change vs veh, ZNF28 / RFU, RNGTT / Fold change vs veh, RNGTT / RFU, OGT / Fold change vs veh, OGT / RFU, BRD1 / Fold change vs veh, BRD1 / RFU, MARS / Fold change vs veh, MARS / RFU, ZNF655 / Fold change vs veh, ZNF655 / RFU, FAHD1 / Fold change vs veh, FAHD1 / RFU, BDP1 / Fold change vs veh, BDP1 / RFU, LRRCC1 / Fold change vs veh, LRRCC1 / RFU, ARID1A / Fold change vs veh, ARID1A / RFU, ZNF146 / Fold change vs veh, ZNF146 / RFU, ZNF330 / Fold change vs veh, ZNF330 / RFU, GPN3 / Fold change vs veh, GPN3 / RFU, C9orf123 / Fold change vs veh, C9orf123 / RFU, N4BP2L2 / Fold change vs veh, N4BP2L2 / RFU, ARFIP1 / Fold change vs veh, ARFIP1 / RFU, FAM179B / Fold change vs veh, FAM179B / RFU, BCL10 / Fold change vs veh, BCL10 / RFU, UHRF1BP1L / Fold change vs veh, UHRF1BP1L / RFU, BET1 / Fold change vs veh, BET1 / RFU, CNOT2 / Fold change vs veh, CNOT2 / RFU, ZNF268 / Fold change vs veh, ZNF268 / Fold change vs veh, ZNF507 / RFU, DGCR2 / Fold change vs veh, DGCR2 / RFU, WDSUB1 / Fold change vs veh, WDSUB1 / Fold change vs veh, HSP90B1 /// MIR3652 / RFU, ADSS / Fold change vs veh, ADSS / RFU, GK / Fold change vs veh, GK / RFU, ZNF148 / Fold change vs veh, ZNF148 / RFU, TAF9 / Fold change vs veh, TAF9 / RFU, SLC1A5 / Fold change vs veh, SLC1A5 / RFU, SLMO2 / Fold change vs veh, SLMO2 / RFU, ABCC4 / Fold change vs veh, ABCC4 / RFU, LOC101060439 /// RAP1B / Fold change vs veh, LOC101060439 /// RAP1B / RFU, RFX7 / Fold change vs veh, RFX7 / RFU, GTPBP10 / Fold change vs veh, GTPBP10 / RFU, CNEP1R1 / Fold change vs veh, CNEP1R1 / RFU, BIVM-ERCC5 /// ERCC5 / Fold change vs veh, BIVM-ERCC5 /// ERCC5 / RFU, ILF3 / Fold change vs veh, ILF3 / RFU 11762660_at / Fold change /veh 11762660_at / RFU VCAN (11757783_s_at) / Fold change /veh VCAN (11757783_s_at) / RFU DDX43 (11728927_at) / Fold change /veh DDX43 (11728927_at) / RFU KRT8 (11758188_x_at) / Fold change /veh KRT8 (11758188_x_at) / RFU NKD1 (11759106_at) / Fold change /veh NKD1 (11759106_at) / RFU SRD5A1 (11742802_a_at) / Fold change /veh SRD5A1 (11742802_a_at) / RFU TPSAB1 /// TPSB2 (11721975_s_at) / Fold change /veh TPSAB1 /// TPSB2 (11721975_s_at) / RFU GSTM3 (11746129_a_at) / Fold change /veh GSTM3 (11746129_a_at) / RFU IL23R (11737362_x_at) / Fold change /veh IL23R (11737362_x_at) / RFU TMEM51 (11727254_a_at) / Fold change /veh TMEM51 (11727254_a_at) / RFU PIWIL2 (11732686_x_at) / Fold change /veh PIWIL2 (11732686_x_at) / RFU ORM1 (11744905_x_at) / Fold change /veh ORM1 (11744905_x_at) / RFU CCDC152 (11743942_at) / Fold change /veh CCDC152 (11743942_at) / RFU ECM1 (11717891_a_at) / Fold change /veh ECM1 (11717891_a_at) / RFU IL23R (11748794_a_at) / Fold change /veh IL23R (11748794_a_at) / RFU TNFAIP8L3 (11732012_x_at) / Fold change /veh TNFAIP8L3 (11732012_x_at) / RFU MBOAT4 (11741988_at) / Fold change /veh MBOAT4 (11741988_at) / RFU 11764193_at / Fold change /veh 11764193_at / RFU TMEM53 (11763286_at) / Fold change /veh TMEM53 (11763286_at) / RFU MAGEB2 (11727129_at) / Fold change /veh MAGEB2 (11727129_at) / RFU TMEM200A (11744735_a_at) / Fold change /veh TMEM200A (11744735_a_at) / RFU CCDC152 (11751479_a_at) / Fold change /veh CCDC152 (11751479_a_at) / RFU FAM211A (11726209_a_at) / Fold change /veh FAM211A (11726209_a_at) / RFU RGS16 (11746705_a_at) / Fold change /veh RGS16 (11746705_a_at) / RFU VCAN (11755009_s_at) / Fold change /veh VCAN (11755009_s_at) / RFU RHOB (11743442_s_at) / Fold change /veh RHOB (11743442_s_at) / RFU RGS16 (11720943_a_at) / Fold change /veh RGS16 (11720943_a_at) / RFU RGS16 (11720944_at) / Fold change /veh RGS16 (11720944_at) / RFU, VPS4B / Fold change vs veh, VPS4B / RFU, CREB1 / Fold change vs veh, CREB1 / RFU, DNAJC13 / Fold change vs veh, DNAJC13 / RFU, GNAQ / Fold change vs veh, GNAQ / RFU, CDK5R1 / Fold change vs veh, CDK5R1 / RFU, ZRANB3 / Fold change vs veh, ZRANB3 / RFU, CUL4A / Fold change vs veh, CUL4A / RFU, CCNY / Fold change vs veh, CCNY / RFU, UFL1 / Fold change vs veh, UFL1 / RFU, COG3 / Fold change vs veh, COG3 / RFU, DIAPH2 / Fold change vs veh, DIAPH2 / RFU, SKA2 / Fold change vs veh, SKA2 / RFU, AFF3 / Fold change vs veh, AFF3 / RFU, LMF1 / Fold change vs veh, LMF1 / RFU, IPO11 / Fold change vs veh, IPO11 / RFU, DFFB / Fold change vs veh, DFFB / RFU, FOXP1 / Fold change vs veh, FOXP1 / RFU, CARD8 / Fold change vs veh, CARD8 / RFU, STRN3 / Fold change vs veh, STRN3 / RFU, ADK / Fold change vs veh, ADK / RFU, RASSF2 / Fold change vs veh, RASSF2 / RFU, WIPF1 / Fold change vs veh, WIPF1 / RFU, LARP1B / Fold change vs veh, LARP1B / RFU, RASA1 / Fold change vs veh, RASA1 / RFU, RB1 / Fold change vs veh, RB1 / RFU, PPFIA1 / Fold change vs veh, PPFIA1 / RFU, MAT2A / Fold change vs veh, MAT2A / RFU, CCT5 / Fold change vs veh, CCT5 / RFU, WDR92 / Fold change vs veh, WDR92 / RFU, CUX1 / Fold change vs veh, CUX1 / RFU, TTC7A / Fold change vs veh, TTC7A / RFU, TMEM135 / Fold change vs veh, TMEM135 / RFU, DEPTOR / Fold change vs veh, DEPTOR / RFU, CPM / Fold change vs veh, CPM / RFU, DNAJB6 / Fold change vs veh, DNAJB6 / RFU, CACNA2D3 / Fold change vs veh, CACNA2D3 / RFU, DTX4 / Fold change vs veh, DTX4 / RFU, TFCP2 / Fold change vs veh, TFCP2 / RFU, GMCL1 /// GMCL1P1 / Fold change vs veh, GMCL1 /// GMCL1P1 / RFU, AEBP2 / Fold change vs veh, AEBP2 / RFU, SNHG1 /// SNORD22 /// SNORD25 /// SNORD26 /// SNORD27 /// SNORD28 /// SNORD29 /// SNORD31 / Fold change vs veh, SNHG1 /// SNORD22 /// SNORD25 /// SNORD26 /// SNORD27 /// SNORD28 /// SNORD29 /// SNORD31 / Fold change (Aza/veh), C12orf56 (ProbeSet 11735607_a_at) / Fold change (ACY-1035/veh), C12orf56 (ProbeSet 11735607_a_at) / Fold change (Aza/veh), FGFR1OP (ProbeSet 11751329_s_at) / Fold change (ACY-1035/veh), FGFR1OP (ProbeSet 11751329_s_at) / Fold change (Aza/veh), VPS36 (ProbeSet 11739960_a_at) / Fold change (ACY-1035/veh), VPS36 (ProbeSet 11739960_a_at) / RFU SYPL1 (11715823_x_at) / Fold change /veh SYPL1 (11715823_x_at) / RFU IGFBP7 (11715501_s_at) / Fold change /veh IGFBP7 (11715501_s_at) / RFU REEP3 (11722064_at) / Fold change /veh REEP3 (11722064_at) / RFU IGLL1 (11728026_x_at) / Fold change /veh IGLL1 (11728026_x_at): dose or concentration left out as unconfirmed
Details: MV-4-11 cells, 48 hours

Nc1ncn([C@@H]2O[C@H](CO)[C@@H](O)[C@H]2O)c(=O)n1 [azacitidine]
RFU CD79A (11719716_a_at): 8.73 RFU
